Literature values, collected in patent publication US11045550B2, “Use of an amino sugar as plasticizer” (Merck Patent GmbH, priority 2016, dated 2021).

Assays:
[1] = at 144° C., literature data

CNC[C@@H](O)[C@@H](O)[C@H](O)[C@H](O)CO [Meglumine, D-(−)-N-Methylglucamine]
pKa value: 9.60

CCC(C)n1ncn(-c2ccc(N3CCN(c4ccc(OCC5COC(Cn6cncn6)(c6ccc(Cl)cc6Cl)O5)cc4)CC3)cc2)c1=O (stereo not shown) [Itraconazole]
pKa (strongest basic): 3.92

CC(C)Cc1ccc(C(C)C(=O)O)cc1 (stereo not shown) [Ibuprofen]
Ibuprofen degraded when processed by HME [1]: 11.6%

CCCc1nc2c(C)cc(-c3nc4ccccc4n3C)cc2n1Cc1ccc(-c2ccccc2C(=O)O)cc1 [Telmisartan]
pKa (strongest acidic): 3.65
